Laboratory results as given in patent US11565003B2, “Mechanical opening of lipid bilayers by molecular nanomachines” (William Marsh Rice University, priority 2016, dated 2023).
Starred links: 1 amine or outer side, 2 acyl side, 3 side chain; linkers in the order of their positions; H or OH if unused. Positions of bridges follow the written chain, without caps; N, C: chain ends. Residues, ends and D or L forms follow the SMILES beside them. Chains are numbered I, II in the order given. X2 = C[C@@H]1Cc2ccc3ccccc3c2C1=C1c2cc(C#CCCn3cc(C(=O)[*:1])nn3)ccc2Sc2ccc(C#CCCn3cc(C(=O)[*:2])nn3)cc21

Test system: PC-3 cells
Test: UV-activated nanomechanical necrosis, live cell confocal microscopy, PC-3
Format: cell-based, human
Conditions: for Time of Full Necrosis / Time of Initial Necrosis / % acceleration for full necrosis: 355 nm UV; for % acceleration for full necrosis: versus UV upon blank cells
Description: Following the synthetic bilipid vesicle experiments, nanomechanical action upon live cells was studied using confocal microscopy aided by a super-resolution technique called Phase Modulation Nanoscopy. Applicants used two experimental methods. In the first method (Method A), the molecular motors were loaded into the cell media and the imaging was initiated within 5 minutes to 24 hours. In the second method, (Method B), the molecular motors were loaded into the cell media, incubated for 30 minutes to 24 hours, and then washed three times with fresh molecular motor-free media before imaging.
Next, Applicants used the smaller nanomachine, 3. Initial control experiments (blank) were performed without nanomachines being present. UV-induced (355 nm) PC-3 necrosis is not initiated until approximately scan 20 (corresponding to 300 second continuous scanning UV exposure, 400 nJ/voxel total dwell time), characterized by massive disruption and rupture of the mitochondrial network and subsequent well-pronounced auto-fluorescent signal detectable in the nucleoli and nucleus wall (FIG. 7A). This is observable by the nucleoli membrane permeabilization and DNA damage at the onset of necrosis. The UV-induced necrosis reaches final stages at approximately scan 40 (corresponding to 600 seconds) that is consistent with characteristic extracellular membrane rupture and homogenous cytosolic auto-fluorescence, indicating loss of cellular organelle boundaries.
Microscopy cells were seeded in untreated iBibi 100 μL live cell channels and allowed to grow to 40% to 60% confluence, at 37° C. in 5% CO2. At this stage, the medium was replaced and cells were treated with the studied nanomachines and co-stains as appropriate, with 0.1% DMSO (as detailed above) present in the final imaging medium. For live cell imaging, DMEM/F12 media (10% FBS) lacking phenol red was used from this point onwards. Following incubation, where Method B was used, the channels were washed with live cell imaging media and imaged using a purpose build incubator housing the microscope maintaining 37° C., 5% CO2 and 10% humidity.
All live cell imaging experiments used either NIH 3T3 mouse skin fibroblast cells, PC-3 cells, a grade 3 human prostate adenocarcinoma, or Chinese hamster ovary cells (CHO). These are all well-studied cell lines with discrete morphological compositions. Each molecular machine was used as a stock solution at 0.10 to 1.00 μM with total dimethyl sulfoxide (DMSO) concentrations not exceeding 0.1% in the final cell media in order to avoid unwanted cell membrane permeabilization, the DMSO being required for solubility of the organic nanomachines. All loading experiments are carried out in a light-suppressed manner and the possibility of induced or accelerated uptake due to interaction between the molecular motors and the applied co-stain has been eliminated using a series of individual and reversed loading experiments.
All experimental imaging parameters (i.e., laser beam size, confocal pinhole size, laser intensity, line scanning speed, scanning area (field of view, FOV), and line averaging sequences) were kept constant throughout the experiments. The accuracy and errors associated with the establishment of accelerated necrosis are determined based on one dual channel imaging sequence, which takes 15 seconds in total. This imaging sequence has been carefully established using untreated live cells.
Steady state fluorescence images were recorded using a PhMoNa enhanced Leica SP5 II LSCM equipped with a HCX PL APO 63×/1.40 NA LambdaBlue Oil immersion objective. As an initial control experiment to establish the UV-induced cell toxicity threshold, while mitigating voxel exposure and ensuring sufficient laser dwell time, an imaging sequence has been established to monitor cell morphological and physiological changes as a function of time. All experiments used cell-line-determined culture medium containing 0.1% DMSO. […]

[1] = PC-3, Method B (washed three times)

CC(C)[C@H](NC(=O)[C@H](CCCNC(=N)N)NC(=O)[C@@H](NC(=O)[C@H](CC(N)=O)NC(=O)[C@H](CO)NC(=O)c1cn(CCC#Cc2ccc3c(c2)C(=C2c4c(ccc5ccccc45)C[C@H]2C)c2cc(C#CCCn4cc(C(=O)N[C@@H](CO)C(=O)N[C@@H](CC(N)=O)C(=O)N[C@H](C(=O)N[C@@H](CCCNC(=N)N)C(=O)N[C@H](C(=O)N[C@@H](C)C(=O)N5CCC[C@H]5C(=O)O)C(C)C)[C@@H](C)O)nn4)ccc2S3)nn1)[C@@H](C)O)C(=O)N[C@@H](C)C(=O)N1CCC[C@H]1C(=O)O [Compound 9] (I: SNTRVAP-OH / II: SNTRVAP-OH; linker I:N-II:N via X2)
selectivity for targeted PC-3 cells over non-targeted control cells (in words) (NIH 3T3 and CHO as non-targeted controls): selectively target the PC-3 cell line over CHO cells
Time of Full Necrosis (PC-3, Method A (no washing)): 360 s
Time of Initial Necrosis (PC-3, Method A (no washing)): 150 s
% acceleration for full necrosis (PC-3, Method A): 40%
Time of Full Necrosis [1]: 390 s
Time of Initial Necrosis [1]: 180 s
% acceleration for full necrosis (PC-3, Method B): 35%
accelerated necrosis upon UV-activation after washing and further 24 hours in rotor free media (PC-3, incubated 30 minutes to 4 hours, washed three times, 24 hours rotor free media): 25%
